The text below walks through data of patent US20240182470A1, “KRASG12C MUTANT PROTEIN INHIBITOR, PREARATION AND USE THEREOF” (YA THERAPEUTICS INC, priority 2021, published 2024).

pIC50: −log10 of the molar value.

For orientation: pIC50 means the negative decadic logarithm of the IC50, by convention in mol/L.

The test system of this assay is H358 (KRAS G12C mutant) cells. Briefly: Tumor cell proliferation inhibition assay (Cell Titer-Glo, 72 h). Format: cell-based. To be noted: inhibition of tumor cell proliferation, 72 hours with compound, 10% fetal bovine serum; read-out: NCI-H538 IC50(nm). As for the experimental part: The H358 (KRAS G^12C mutant) cells were digested, centrifuged and resuspended, and the cell density was measured with a Scepter automatic cell counter. The cells were diluted to a solution containing 44,000 cells per milliliter, and the density-adjusted cell solution was 90 microliters per well. into a 96-well culture plate. The 96-well plate was placed in a 37° C., 5% CO2 incubator. After the cells were cultured for 24 hours, different concentrations of the compounds to be tested were added. The cells were incubated with the compounds for 72 hours in the presence of 10% fetal bovine serum. Glo Luminescent Cell Viability Assay Kit (see manufacturer's instructions for details) was used to measure ATP content to assess cell growth inhibition. Briefly, 30 μl of Cell Titer-Glo reagent was added to each well, and the plate was shaken for 10 minutes to induce cell lysis. Fluoroskan
Ascent FL (Thermo) assay was used to record the fluorescent signal, and the maximum signal value was obtained from cells treated with dimethyl sulfoxide for 72 hours. The minimum signal value was obtained from the medium alone (the number of cells was zero), and the % inhibition rate=(the maximum signal value compound signal value)/(the maximum signal value—the minimum signal value×100%, and the data were processed using Graphpadprism 5 software. By sigmoid Dose-response curve fitting to calculate the IC50 value. “A” means IC50≤50 nM; “B” means 50<IC50≤500 nM; “C” means 500<IC50≤2000 nM; “D” means 2000 nM<IC50
For the substance “6-Chloro-7-(3-hydroxy-8-fluoronaphthyl)-8-fluoro-4-(((S)-4-(2-fluoroacryloyl)-3-carbonitrileethylpiperazine)-1-yl)-2-(((S)-2,2-difluorotetrahydro-1H-pyrincycline-7a(5H)-yl)methoxy)quinazoline [Compound 77]”, the pIC50 is at least 7.30.

“6-Chloro-7-(3-hydroxy-8-fluoronaphthyl)-8-fluoro-4-(((S)-4-acryloyl-3-carbonitrileethylpiperazine)-1-yl)-2-(((S)-2,2-difluorotetrahydro-1H-pyrinyl-7a(5H)-yl)methoxy)quinazoline [Compound 76]”: the pIC50 was at least 7.30.

In the case of “6-Chloro-7-(8-fluoronaphthyl)-8-fluoro-4-(((R)-4-acryloyl-2-methylpiperazine)-1-yl)-2-(((2R,7aS)-2-fluorotetrahydro-1H-pyrincycline-7a(5H)-yl)methoxy)quinazoline [Compound 37]”, the pIC50 is at least 7.30.

Take “6-Chloro-7-(8-fluoronaphthyl)-8-fluoro-4-(((S)-4-acryloyl-3-carbonitrileethylpiperazine)-2-(((S)-2,2- difluorotetrahydro-1H-pyrincyclo-7a(5H)-yl)methoxy)quinazoline [Compound 75]”: the pIC50 is at least 7.30.

In the case of “6-Chloro-7-(8-methylnaphthyl)-8-fluoro-4-(((R)-4-acryloyl-2-methylpiperazine)-1-yl)-2-(((2R,7aS)-2-fluorotetrahydro-1H-pyrinyl-7a(5H)-yl)methoxy)quinazoline [Compound 73]”, the pIC50 was at least 7.30.

On to “6-Chloro-7-(8-methylnaphthyl)-8-fluoro-4-(((R)-4-acryloyl-2-methylpiperazine)-1-yl)-2-((((S))-2,2-Difluorotetrahydro-1H-pyrincycline-7a(5H)-yl)methoxy)quinazoline [Compound 74]”, for which the pIC50 is at least 7.30.

For the substance “6-Chloro-74(3-hydroxy-8-fluoronaphthyl)-8-fluoro-4-(((S)-4-(2-fluoroacryloyl)-3-carbonitrileethylpiperazine)-1-yl)-2-(((2R,7aS)-2-fluorotetrahydro-1H-pyrincycline-7a(5H)-yl)methoxy)quinazoline [Compound 43]”, the pIC50 is at least 7.30.

On to “7-(2-Fluoro-6-hydroxyphenyl)-6-fluoro-4-(((S)-4-(2-fluoroacryloyl)-3-carbonitrileethylpiperazine)-1-yl)-2-(((S)-1-(methyl-d3)pyrrolidin-2-yl)methoxy)pyridine[2,3-d]lopyrimidine [Compound 11]”, for which the pIC50 is below 5.70.

Turning to “7-(3-Hydroxy-8-fluoronaphthyl)-8-fluoro-4-(((R)-4-acryloyl-2-methylpiperazine)-1-yl)-2-(((S)-2,2-difluorotetrahydro-1H-pyrincycline-7a(5H)-yl)methoxy)quinazoline [Compound 70]”, the pIC50 is at least 7.30.

On to “7-(3-Hydroxy-8-fluoronaphthyl)-8-fluoro-4-(((S)-4-(2-fluoroacryloyl)-3-carbonitrileethylpiperazine)-2-((((S)-2,2-Difluorotetrahydro-1H-pyrincycline-7a(5H)-yl)methoxy)quinazoline [Compound 65]”, for which the negative logarithm of the IC50 (pIC50) was at least 7.30.

Regarding “7-(3-Hydroxy-8-fluoronaphthyl)-8-fluoro-4-(((S)-4-acryloyl-3-carbonitrileethylpiperazine)-2-(((S)-2,2-difluorotetrahydro-1H-pyrincyclo-7a(5H)-yl)methoxy)quinazoline [Compound 64]”, the pIC50 is at least 7.30.

In the case of “7-(8-Chloronaphthalene)-4-(((R)-4-Acryloyl-2-methylpiperazine)-1-yl)-2-(((1-(pyrrolidin-1-yl)methancycloprop an-1-yl)methoxy)pyridine[2,3-d]lopyrimidine [Compound 14]”, the pIC50 was at least 7.30.

For “7-(8-Chloronaphthalene)-4-(((R)-4-Acryloyl-2-methylpiperazine)-1-yl)-24(1-(N,N-dimethylamino)) methylcyclopropan-1-yl)methoxy)pyridine[2,3-d]lopyrimidine [Compound 23]”, the pIC50 was at least 7.30.

With “7-(8-Chloronaphthalene)-4-(((R)-4-Acryloyl-3-carbonitrileethylpiperazine)-1-yl)-2-(((1-(pyrrolidin-1-yl)methylcyclopropan-1-yl)methoxy)pyridine[2,3-d]lopyrimidine [Compound 16]”, the pIC50 was at least 7.30.

As for “7-(8-Chloronaphthalene)-4-(((R)-4-Acryloyl-3-carbonitrileethylpiperazine)-1-yl)-24(1-(N,N-dimethylaminyl)methylcyclopropan-1-yl)methoxy)pyridine[2,3-d]lopyrimidine [Compound 20]”, the negative-log IC50 (pIC50) was at least 7.30.

As for “7-(8-Fluoronaphthalene)-4-(((R)-4-Acryloyl-2-methylpiperazine)-1-yl)-2-(((1-(pyrrolidin-1-yl)methyl cyclopropan-1-yl)methoxy)pyridine[2,3-d]lopyrimidine [Compound 13]”, the pIC50 is at least 7.30.

On to “7-(8-Fluoronaphthalene)-4-(((R)-4-Acryloyl-2-methylpiperazine)-1-yl)-24(1-(N,N-dimethylamino)) methylcyclopropan-1-yl)methoxy)pyridine[2,3-d]lopyrimidine [Compound 24]”, for which the pIC50 was at least 7.30.

Regarding “7-(8-Fluoronaphthalene)-4-(((R)-4-Acryloyl-3-carbonitrileethylpiperazine)-1-y1)-2-(((1-(pyrrolidin-1-yl)methylcyclopropan-1-yl)methoxy)pyridine[2,3-d]lopyrimidine [Compound 15]”, the pIC50 was at least 7.30.

Turning to “7-(8-Fluoronaphthalene)-4-(((R)-4-Acryloyl-3-carbonitrileethylpiperazine)-1-yl)-24(1-(N,N-dimethylamineyl)methylcyclopropan-1-yl)methoxy)pyridine[2,3-d]lopyrimidine [Compound 21]”, the pIC50 was at least 7.30.

For “7-(8-Fluoronaphthyl)-6-fluoro-4-(8-(2-fluoroacryloyl)-3,8-diazabicyclo[3.2.1]octan-3-yl)-2-(((2R,7aS)-2-fluorotetrahydro-1H-pyrinyl-7a(5H)-yl)methoxy)pyridine[2,3-d]lopyrimidine [Compound 31]”, the pIC50 was at least 7.30.

Regarding “7-(8-Fluoronaphthyl)-6-fluoro-4-(((R)-4-acryloyl-2-methylpiperazine)-1-yl)-2-(((S)-2,2-difluorotetrahydro-1H-pyrincycl-7a(5H)-yl)methoxy)pyridine[2,3-d]lopyrimidine [Compound 79]”, the pIC50 was at least 7.30.

As for “7-(8-Fluoronaphthyl)-6-fluoro-4-(((S)-4-(2-acryloyl)-3-carbonitrileethylpiperazine)-1-yl)-2-((((S)-1-(methyl-d3)pyrrolidin-2-yl)methoxy)pyridine[2,3-d]lopyrimidine [Compound 9]”, the negative logarithm of the IC50 (pIC50) is at least 7.30.

In the case of “7-(8-Fluoronaphthyl)-8-fluoro-4-(((R)-4-acryloyl-2-methylpiperazine)-1-yl)-2-(((2R,7aS)-2-fluorotetrahydro-1H-pyrincyclo-7a(5H)-yl)methoxy)quinazoline [Compound 69]”, the pIC50 is at least 7.30.

Regarding “7-(8-Fluoronaphthyl)-8-fluoro-4-(((S)-4-(2-fluoro acryloyl)-3-c arbonitrileethylpiperazine)-1-yl)-2-((tetrakis Hydrogen-1H-pyrinyl-7a(5H)-yl)methoxy)quinazoline [Compound 88]”, the pIC50 was at least 7.30.
